Patent publication US11840533B2, “Pyridinone-based epigenetic modifiers and uses thereof” (THE BOARD OF TRUSTEES OF THE UNIVERSITY OF ILLINOIS, priority 2017, dated 2023)

Tests used:
BRD4 bromodomain 2 = BRD4 bromodomain 2 (Homo sapiens (Human), UniProt O60885); experiment: TR-FRET BRD4 binding assay, bromodomain 2; conditions: read-out: TR-FRET BRD4-BD2 Ki
Procedure: (§1) Briefly, compounds were serial diluted into the 1×TR-FRET Assay Buffer with no more than 8% DMSO, and the final concentration tested was distributed from […] to 10 uM with no more than 2% DMSO. (+)JQ-1 was used as positive control. […] Then the reconstituted BRD4 bromodomain ligand/APC Acceptor Mixture were added to every well and incubate for 1 hr at room temperature. The plate was sealed with adhesive aluminum seal to prevent photobleaching. Then the plate was read in time-resolved format by exiting the well at 340 nm and reading emmission at 620 and 670 nm, using 100 us delay and 500 us read window. Data analysis was performed using the TR-FRET ratio which is the 670 nm emission/620 nm emission.

[1] = system: fulvestrant-resistant MCF7:5C-FR cells; experiment: Fulvestrant-resistant breast cancer cell viability (cell proliferation) assay; format: cell-based; conditions: growth inhibition in fulvestrant-resistant MCF-7:CFR cells, 120 hrs
How it was run: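 Cells were treated the day after seeding with compounds at 3 nM to 10 uM for 120 h, with 0.1% DMSO vehicle and 1 uM JQ1 as positive control. Hoechst 33342-stained (5 μg/ml, 90 min, 37 C) nuclei were imaged and counted, and cell numbers normalized to vehicle.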

BRD4 bromodomain 1 = BRD4 bromodomain 1 (Homo sapiens (Human), UniProt O60885); experiment: TR-FRET BRD4 binding assay, bromodomain 1; conditions: read-out: TR-FRET BRD4-BD1 Ki
Procedure: as §1

Cn1cc(-c2cc(NS(C)(=O)=O)c3ccn(Cc4ccc(F)cc4)c3c2)c2ccnc(O)c21 [Compound 23, N-(1-(4-fluorobenzyl)-6-(7-hydroxy-1-methyl-1H-pyrrolo[2,3-c]pyridin-3-yl)-1-indol-4-yl)methanesulfonamide]
Ki (BRD4 bromodomain 2): < 100 nM | IC50 ([1]; 120 h): 17 nM | Ki (BRD4 bromodomain 1): < 100 nM

Cn1cc(-c2cc(NS(C)(=O)=O)c3cnn(Cc4ccc(F)cc4)c3c2)c2ccnc(O)c21 [Compound 30, N-(1-(4-fluorobenzyl)-6-(7-hydroxy-1-methyl-1H-pyrrolo[2,3-c]pyridin-3-yl)-1H-indazol-4-yl)methanesulfonamide]
Ki (BRD4 bromodomain 2): < 100 nM | IC50 ([1]; 120 h): 40 nM | Ki (BRD4 bromodomain 1): < 100 nM

CCS(=O)(=O)Nc1cc(-c2cn(C)c3c(O)nccc23)cc2c1cnn2Cc1ccc(F)cc1 [Compound 31, N-(1-(4-fluorobenzyl)-6-(7-hydroxy-1-methyl-1H-pyrrolo[2,3-c]pyridin-3-yl)-1H-indazol-4-yl)ethanesulfonamide]
Ki (BRD4 bromodomain 2): < 100 nM | IC50 ([1]; 120 h): 15 nM | Ki (BRD4 bromodomain 1): < 100 nM

CC(=O)Nc1cc(-c2cn(C)c3c(=O)[nH]ccc23)cc2c1ccn2C(C)(c1ccccn1)c1ccccn1 [Compound 71, N-(1-(1,1-di(pyridin-2-yl)ethyl)-6-(1-methyl-7-oxo-6,7-dihydro-1H-pyrrolo[2,3-c]pyridin-3-yl)-1H-indol-4-yl)acetamide]
Ki (BRD4 bromodomain 2): < 10 nM | IC50 ([1]; 120 h): 10 nM | Ki (BRD4 bromodomain 1): < 10 nM

Cn1cc(-c2cc(C(C)(C)O)c3ccn(C(C)(c4ccccn4)c4ccccn4)c3c2)c2cc[nH]c(=O)c21 [Compound 72, 3-(1-(1,1-di(pyridin-2-yl)ethyl)-4-(2-hydroxypropan-2-yl)-1H-indol-6-yl)-1-methyl-1H-pyrrolo[2,3-c]pyridin-7(6H)-one]
Ki (BRD4 bromodomain 2): < 10 nM | IC50 ([1]; 120 h): 20 nM | Ki (BRD4 bromodomain 1): < 10 nM

Cn1cc(-c2cc3c(C(C)(C)O)cccc3n2[C@H](c2ccccc2)C2CCOCC2)c2ccnc(O)c21 [Compound 117, (S)-3-(4-(2-hydroxypropan-2-yl)-1-(phenyl(tetrahydro-2H-pyran-4-yl)methyl)-1H-indol-2-yl)-1-methyl-1H-pyrrolo[2,3-c]pyridin-7-ol]
IC50 ([1]; 120 h): < 1000 nM

CC(=O)Nc1cccc2c1cc(-c1cn(C)c3c(O)nccc13)n2[C@@H](c1ccccc1)C1CCOCC1 [Compound 118, (R)-N-(2-(7-hydroxy-1-methyl-1H-pyrrolo[2,3-c]pyridin-3-yl)-1-(phenyl(tetrahydro-2H-pyran-4-yl)methyl)-1H-indol-4-yl)acetamide]
IC50 ([1]; 120 h): < 1000 nM

CC(=O)Nc1cccc2c1cc(-c1cn(C)c3c(O)nccc13)n2[C@H](c1ccccc1)C1CCOCC1 [Compound 119, (S)-N-(2-(7-hydroxy-1-methyl-1H-pyrrolo[2,3-c]pyridin-3-yl)-1-(phenyl(tetrahydro-2H-pyran-4-yl)methyl)-1H-indol-4-yl)acetamide]
IC50 ([1]; 120 h): < 1000 nM

CCS(=O)(=O)c1cccc2c1cc(-c1cn(C)c3c(O)nccc13)n2[C@H](c1ccccc1)C1CCOCC1 [Compound 120, (S)-3-(4-(ethylsulfonyl)-1-(phenyl(tetrahydro-2H-pyran-4-yl)methyl)-1H-indol-2-yl)-1-methyl-1H-pyrrolo[2,3-c]pyridin-7-ol]
IC50 ([1]; 120 h): < 1000 nM

CCS(=O)(=O)c1cccc2c1cc(-c1cn(C)c3c(O)nccc13)n2[C@@H](c1ccccc1)C1CCOCC1 [Compound 121, (R)-3-(4-(ethylsulfonyl)-1-(phenyl(tetrahydro-2H-pyran-4-yl)methyl)-1H-indol-2-yl)-1-methyl-1H-pyrrolo[2,3-c]pyridin-7-ol]
IC50 ([1]; 120 h): < 1000 nM

Cn1cc(-c2cc3c(NS(C)(=O)=O)cccc3n2[C@H](c2ccccc2)C2CCOCC2)c2ccnc(O)c21 [Compound 122, (S)-N-(2-(7-hydroxy-1-methyl-1H-pyrrolo[2,3-c]pyridin-3-yl)-1-(phenyl(tetrahydro-2H-pyran-4-yl)methyl)-1H-indol-4-yl)methanesulfonamide]
IC50 ([1]; 120 h): < 1000 nM

Cn1cc(-c2cc3c(NS(C)(=O)=O)cccc3n2[C@@H](c2ccccc2)C2CCOCC2)c2ccnc(O)c21 [Compound 123, (R)-N-(2-(7-hydroxy-1-methyl-1H-pyrrolo[2,3-c]pyridin-3-yl)-1-(phenyl(tetrahydro-2H-pyran-4-yl)methyl)-1H-indol-4-yl)methanesulfonamide]
IC50 ([1]; 120 h): < 1000 nM

CC(C)C(=O)Nc1cccc2c1cc(-c1cn(C)c3c(O)nccc13)n2[C@@H](c1ccccc1)C1CCOCC1 [Compound 124, (R)-N-(2-(7-hydroxy-1-methyl-1H-pyrrolo[2,3-c]pyridin-3-yl)-1-(phenyl(tetrahydro-2H-pyran-4-yl)methyl)-1H-indol-4-yl)isobutyramide]
IC50 ([1]; 120 h): < 1000 nM

CC(C)C(=O)Nc1cccc2c1cc(-c1cn(C)c3c(O)nccc13)n2[C@H](c1ccccc1)C1CCOCC1 [Compound 125, (S)-N-(2-(7-hydroxy-1-methyl-1H-pyrrolo[2,3-c]pyridin-3-yl)-1-(phenyl(tetrahydro-2H-pyran-4-yl)methyl)-1H-indol-4-yl)isobutyramide]
IC50 ([1]; 120 h): < 1000 nM

CCC(c1ccccn1)(c1ccccn1)n1ccc2c(NS(=O)(=O)CC)cc(-c3cn(C)c4c(=O)[nH]ccc34)cc21 [Compound 126, N-(1-(1,1-di(pyridin-2-yl)propyl)-6-(1-methyl-7-oxo-6,7-dihydro-1H-pyrrolo[2,3-c]pyridin-3-yl)-1H-indol-4-yl)ethanesulfonamide]
IC50 ([1]; 120 h): < 10 nM

CCC(c1ccccn1)(c1ccccn1)n1c(-c2cn(C)c3c(O)nccc23)nc2c(NS(=O)(=O)CC)cccc21 [Compound 127, N-(1-(1,1-di(pyridin-2-yl)propyl)-2-(7-hydroxy-1-methyl-1H-pyrrolo[2,3-c]pyridin-3-yl)-1H-benzo[d]imidazol-4-yl)ethanesulfonamide]
IC50 ([1]; 120 h): < 1000 nM

Cn1cc(-c2cc(S(C)(=O)=O)c3ccn(C(C)(c4ccccn4)c4ccccn4)c3c2)c2cc[nH]c(=O)c21 [Compound 128, 3-(1-(1,1-di(pyridin-2-yl)ethyl)-4-(methylsulfonyl)-1H-indol-6-yl)-1-methyl-1,6-dihydro-7H-pyrrolo[2,3-c]pyridin-7-one]
IC50 ([1]; 120 h): < 1000 nM

CCS(=O)(=O)c1cc(-c2cn(C)c3c(=O)[nH]ccc23)cc2c1ccn2C(C)(c1ccccn1)c1ccccn1 [Compound 129, 3-(1-(1,1-di(pyridin-2-yl)ethyl)-4-(ethylsulfonyl)-1H-indol-6-yl)-1-methyl-1,6-dihydro-7H-pyrrolo[2,3-c]pyridin-7-one]
IC50 ([1]; 120 h): < 1000 nM

CC(C)C(=O)Nc1cc(-c2cn(C)c3c(=O)[nH]ccc23)cc2c1ccn2C(C)(c1ccccn1)c1ccccn1 [Compound 131, N-(1-(1,1-di(pyridin-2-yl)ethyl)-6-(1-methyl-7-oxo-6,7-dihydro-1H-pyrrolo[2,3-c]pyridin-3-yl)-1H-indol-4-yl)isobutyramide]
IC50 ([1]; 120 h): < 100 nM

Cn1cc(-c2cc(NS(C)(=O)=O)c3ccn(C(C)(c4ccccn4)c4ccccn4)c3c2)c2cc[nH]c(=O)c21 [Compound 132, N-(1-(1,1-di(pyridin-2-yl)ethyl)-6-(1-methyl-7-oxo-6,7-dihydro-1H-pyrrolo[2,3-c]pyridin-3-yl)-1H-indol-4-yl)methanesulfonamide]
IC50 ([1]; 120 h): 13 nM

N-(1-benzhydryl-6-(1-methyl-7-oxo-6,7-dihydro-1H-pyrrolo[2,3-c]pyridin-3-yl)-1H-indol-4-yl)ethanesulfonamide [Compound 130]
IC50 [1]: < 100 nM
